Test results reported in patent publication US9428542B2, “Lupane triterpenoid derivatives and pharmaceutical use thereof” (priority 2012, dated 2016).

Key:
[1] = system: MT-2 cells; experiment: Compounds' cytotoxicity assay in MT-2 cells (CellTiter-Glo); format: cell-based; set-up: unit not given here; settings: toxicity in MT-2 cells, 3 days
Method: 3. Method for Compounds' Cytotoxicity Assay:
The MT-2 cells are diluted to a needed concentration. 90 μl of the MT-2 cells suspension was added into 384-well plates containing 10 μl of the tested compounds. Compounds were dissolved in DMSO and tested as 11 points 3-fold serial dilutions. After addition of cells to compound plates, plates were placed to humidified 5% CO2 37 incubator for 3 days. The Luciferase activity was measured by CellTiter-Glo® Luminescent Cell Viability Assay kit (Promega Corp., WI, USA).
(§1) TC50 is referred to the toxicity in MT-2 cells by the compounds tested at 50% concentration; IC50 is referred to the inhibiting HIV-1IIIB replication in MT-2 cells by the compounds tested at 50% concentration; Therapeutic Index (TI)=TC50/IC50.

[2] = system: HIV-1IIIB; experiment: HIV-1 full replication assay (HIV-1IIIB-infected MT-2 cells, supernatant read out on TZM-bl cells, β-Gal); format: cell-based; settings: Human immunodeficiency virus 1, MT2, 72 h, inhibiting HIV-1IIIB replication in MT-2 cells, 3 days; read-out: IC50 (PM)
Method: The antiviral activity of the compounds of the present invention was determined in a HIV-1 full replication assay.
In this assay, MT-2 cells that are infected with HIV-1IIIB were co-cultured with different concentration of the tested compounds for 3 days and then supernatant is transferred into new 384-well plates containing TZM-bl cells (also called JC53-bl). TZM-bl cells that could be infected by various kinds of HIV-1 strains stably express a great amount of HIV-1 receptor, co-receptor CD4 molecular, and co-receptor CXCR4 and CCR5. TZM-bl cells harbor LTR-luciferase and β-gal two report genes. The expression of luciferase and β-gal reporter directed by HIV-1 LTR can be activated by Tat protein generated after HIV infection, and the quantity of expression is proportional to the quantity of HIV-1. Compounds that interfere with virus replication in MT-2 cells, maturation of the virus, or post-entry steps in the HIV lifecycle decrease the luciferase signal or β-gal signal. In this experiment, BVM (Bevirimat, PA-457) is used as a positive control drug.
Method for Inhibiting HIV-1 Replication Assay:
The MT-2 cells are infected at a Multiciplicity (MOI) of 0.01 TCID50, and then the MT-2 cells suspension was diluted to a needed concentration. 90 μl of the MT-2 cells suspension from above was added into 384-well plates containing 10 μl of the tested compounds.
Compounds were dissolved in DMSO and tested as 11 points 3-fold serial dilutions. After addition of cells to compound plates, plates were placed to humidified 5% CO2 37 incubator for 3 days. 10 μl of cells culture supernatant from the incubated plates was transferred into new black 384-well plates.
Adjusted the TZMb1 cells concentration and 40 μl of TZMb1 cells was added into each well in the black 384-well plates. After addition of the TZMb1 cells to the black plates, black plates were placed to humidified 5% CO2 37 incubator for 24 h, then β-Gal activity was measured.
The anti viral activity %=(measured number-lowest mean number)/(highest mean number-lowest mean number)×100. The IC50 values were calculated by Median Equation and the IC curve was generated by Graphpad Prism V 5.03.
as §1

Row | SMILES | TC50 (PM) [1] | IC50 [2] [nM]
1 | CC(C)C1=C2[C@H]3CC[C@@H]4[C@@]5(C)CC[C@H](OC(=O)CC(C)(C)C(=O)O)C(C)(C)[C@@H]5CC[C@@]4(C)[C@]3(C)CC[C@@]2([C@H](O)c2nnc(-c3ccc(Cl)cc3)o2)CC1=O [Compound 127-2] | 45 | 25
2 | CC(C)C1=C2[C@H]3CC[C@@H]4[C@@]5(C)CC[C@H](OC(=O)CC(C)(C)C(=O)O)C(C)(C)[C@@H]5CC[C@@]4(C)[C@]3(C)CC[C@@]2([C@@H](O)c2nnc(-c3ccc(Cl)cn3)o2)CC1=O [Compound 127-3] | 33 | 0.6
3 | CC(C)C1=C2[C@H]3CC[C@@H]4[C@@]5(C)CC[C@H](OC(=O)CC(C)(C)C(=O)O)C(C)(C)[C@@H]5CC[C@@]4(C)[C@]3(C)CC[C@@]2([C@H](O)c2nnc(-c3ccc(Cl)cn3)o2)CC1=O [Compound 127-4] | 200 | 38
4 | CC(C)C1=C2[C@H]3CC[C@@H]4[C@@]5(C)CC[C@H](OC(=O)CC(C)(C)C(=O)O)C(C)(C)[C@@H]5CC[C@@]4(C)[C@]3(C)CC[C@@]2([C@@H](O)c2nnc(-c3ncc(Cl)cn3)o2)CC1=O [Compound 127-5] | 38 | 1
5 | CC(C)C1=C2[C@H]3CC[C@@H]4[C@@]5(C)CC[C@H](OC(=O)CC(C)(C)C(=O)O)C(C)(C)[C@@H]5CC[C@@]4(C)[C@]3(C)CC[C@@]2(c2nnc(Nc3ccc(Cl)cc3)o2)CC1=O [Compound 133-1] | 21 | 10
6 | CC(C)C1=C2[C@H]3CC[C@@H]4[C@@]5(C)CC[C@H](OC(=O)CC(C)(C)C(=O)O)C(C)(C)[C@@H]5CC[C@@]4(C)[C@]3(C)CC[C@@]2(c2nnc(N(CCN(C)C)c3ccc(Cl)cc3)o2)CC1=O [Compound 133-2] | 47 | ≤ 0.17
7 | CC(C)C1=C2[C@H]3CC[C@@H]4[C@@]5(C)CC[C@H](OC(=O)CC(C)(C)C(=O)O)C(C)(C)[C@@H]5CC[C@@]4(C)[C@]3(C)CC[C@@]2(Nc2nnc(-c3ccc(Cl)cc3)o2)CC1=O [Compound 141-1] | 26 | 5.5
8 | CC(C)C1=C2[C@H]3CC[C@@H]4[C@@]5(C)CC[C@H](OC(=O)CC(C)(C)C(=O)O)C(C)(C)[C@@H]5CC[C@@]4(C)[C@]3(C)CC[C@@]2(Nc2nnc(-c3ccc(Cl)cn3)o2)CC1=O [Compound 141-2] | 24 | 0.26
9 | CC(C)C1=C2[C@H]3CC[C@@H]4[C@@]5(C)CC[C@H](OC(=O)CC(C)(C)C(=O)O)C(C)(C)[C@@H]5CC[C@@]4(C)[C@]3(C)CC[C@@]2(Nc2nnc(-c3ncc(Cl)cn3)o2)CC1=O [Compound 141-3] | 22 | 1.7
10 | CC(C)C1=C2[C@H]3CC[C@@H]4[C@@]5(C)CC[C@H](OC(=O)CC(C)(C)C(=O)O)C(C)(C)[C@@H]5CC[C@@]4(C)[C@]3(C)CC[C@@]2(c2cc(=O)n(-c3ccc(Cl)cc3)n2CCN)CC1=O [Compound 155-1] | 78 | 1.6
11 | CC(C)C1=C2[C@H]3CC[C@@H]4[C@@]5(C)CC[C@H](OC(=O)CC(C)(C)C(=O)O)C(C)(C)[C@@H]5CC[C@@]4(C)[C@]3(C)CC[C@@]2(c2cc(=O)n(-c3ccc(Cl)cc3)n2CCN(C)C)CC1=O [Compound 156-1] | 19 | ≤ 0.17
